Tested on: Streptococcus pneumoniae
Assay: Streptococcus pneumoniae respiratory infection in mice
Assay type: in vivo, BALB/c mice
Details: severe/advanced infection; nasal flagellin plus antibiotic (oral amoxicillin or intraperitoneal bactrim)
Method: (§1) Animals were infected with a lethal dose of Streptococcus pneumoniae (1-5×10^6 CFU of serotypel, clinical isolate E1586) and treated at 40 h and 48 h as depicted in the upper panel. Seventeen hours later (T=65 h), bacterial counts were defined by plating tissue homogenates. The Left side: bacterial counts per lung. Right side: bacterial counts per spleen.
as §1, with “30” for “40 h and 48”, “Sixteen” for “Seventeen”, “(T=46” for “(T=65”
Animals were infected with a lethal dose of Streptococcus pneumoniae (1-5×10^6 CFU of serotypel, clinical isolate E1586) and treated from 12 h to 84 h as depicted in the upper panel. Survival of animals was then analyzed during 5 days.
FIG. 6. […] (A) S. pneumoniae-infected (2×10^6 CFU) BALB/c mice were treated intraperitoneally with 4.8 mg bactrim, i.e. co-trimoxazole (TMP-SMX) and intranasally with 2.5 μg flagellin FliCΔ174-400 and analyzed as indicated. (B) Survival was monitored every 12 h for 9 days. (C, D) Bacterial counts in lung (C) and spleen (D) was determined by measuring CFU per tissue. […] (E) The body weight of infected animals was measured and expressed relative to the initial weight. […]

In the case of flagellin, the “reduction of number of bacteria compared to the antibiotic therapy alone” value is reported as 10-to-50 fold.

— patent publication US9919029B2, “Methods and pharmaceutical compositions for the treatment of bacterial infections” (INSERM (INSTITUT NATIONAL DE LA SANTE ET DE LA RECHERCHE …, priority 2013, dated 2018)
